This is an account of results in US12195558B2, “Targeted delivery system and methods of use therefor” (SANFORD BURNHAM PREBYS MEDICAL DISCOVERY INSTITUTE, priority 2015, dated 2025).

Bridge positions count the residues as written; N and C are the ends. Ends that are not written are not given here.

For one series, the system named is 4T1 breast cancer cells. The series is described as follows: In vitro binding and internalization of FAM-labeled peptide in 4T1 cells. The note with it: 100 μM FAM-labeled peptide, 1 hour at 37° C. It counts as cell-based. The method, then: (§1) FIGS. 6A and 6B are fluorescence micrographs showing internalization of CKRGARSTC (TT1; SEQ ID NO: 3) peptide in breast tumor cells in vitro. 100 μM FAM-labeled peptides were incubated with 4T1 (FIG. 6A) or MCF10 (FIG. 6B) breast cancer cells for 1 hour at 37° C. in DMEM high glucose/10% serum medium. Cells were washed, fixed, stained with anti-FITC antibody, and MITOTRACKER® (Life Technologies) or phalloidin as indicated. Scale bars: 20 μm.
(§2) The ability of the TT1 Peptide to bind to cultured breast tumor cells was tested in vitro.

Series [1] has as its system orthotopic MCF7 breast tumors. Description: In vivo homing of intravenous FAM-labeled peptide, MCF7 tumors. The note with it: 200 μg FAM-labeled peptide i.v., 2 hours. Set-up: species or system mice. The method, then: (§3) FIGS. 7A and 7B are photographs depicting in vivo homing of an exemplary TT1 peptide. 200 μg of FAM-labeled TT1 (SEQ ID NO: 3) peptide or control peptide in PBS was intravenously injected to mice bearing orthotopic 4T1 (FIG. 7A) or MCF7 (FIG. 7B) breast tumors. The peptides were allowed to circulate for 2 hours and organs were collected and photographed under white (top panels) or UV (bottom panels) light. Arrows point to the tumors of TT1 (SEQ ID NO: 3)-injected mice. Note robust signal (white in black and white versions and green in color versions of the Figures) indicating homing of TT1 (SEQ ID NO: 3) peptide to the tumor in both models. H: heart; Lu: lung; Li: liver; Ki: kidney; Sp: spleen; T: tumor.

The target of another series is T1, NRP-1 b1b2 domain (Homo sapiens, UniProt O14786).
T1 sequence (O14786 273-586 limits assumed): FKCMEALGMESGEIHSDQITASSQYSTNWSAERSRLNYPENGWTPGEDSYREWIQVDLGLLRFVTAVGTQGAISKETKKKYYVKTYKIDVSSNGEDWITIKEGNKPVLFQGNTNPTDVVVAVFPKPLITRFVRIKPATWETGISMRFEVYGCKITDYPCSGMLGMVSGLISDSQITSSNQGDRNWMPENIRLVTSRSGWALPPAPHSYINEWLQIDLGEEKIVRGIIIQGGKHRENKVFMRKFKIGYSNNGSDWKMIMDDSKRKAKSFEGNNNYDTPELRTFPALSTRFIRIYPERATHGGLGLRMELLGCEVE
The series is described as follows: Binding of peptide-displaying T7 phage to NRP-1 b1b2-coated magnetic beads. The note with it: 30 minutes at 37° C., p32 versus NRP-1 b1b2 beads. The protocol: FIG. 9 is a bar graph showing proteolytic switching of binding specificity of an exemplary TT1 peptide (SEQ ID NO: 3). T7 phage displaying an exemplary TT1 peptide (SEQ ID NO: 3) were exposed to increasing concentrations of crystalline trypsin and incubated for 30 minutes at 37° C. After treatment, phage were incubated with magnetic beads coated with either p32 (decending hatching left to right) or NRP-1 b1b2 (ascending hatching left to right) protein, followed by washes to remove unbound phage and quantitation of specifically bound phage.
(§4) Variant peptide-encoding genomic DNA of phage was sequenced and analyzed for the presence of consensus motifs. After two rounds of selection, both linear and cyclic libraries converged to contain an RGXRS (SEQ ID NO: 4) pentapeptide motif (see FIG. 2B). The binding of RGXRS (SEQ ID NO: 4)-displaying phage to p32 was specific, as these phage bound to magnetic beads coated with p32 protein and not to beads coated with ligand-binding b1b2 domain of the cell and tissue penetration receptor NRP-1 or BSA (see FIG. 3).
The p32 binding motif with consensus sequence RGXRS (SEQ ID NO: 4; i.e., the RGXRS (SEQ ID NO: 4) pentapeptide motif) contains a cryptic RGXR CendR element that can be unmasked by a tryptic cleavage. […]

A further series concerns atherosclerotic plaques. The series is described as follows: Homing to atherosclerotic plaques in ApoE null mice on high-fat diet. It counts as in vivo. The note with it: for homing to and penetration into plaque tissue: 100 mg FAM labeled peptide i.v., one hour. The method, then:
ApoE null mice that had been kept on a high-fat diet were intravenously injected with […] of the FAM labeled peptides. One hour later, the mice were perfused through the heart under anesthesia, and tissues were collected. The panels show accumulation of FAM labeled peptides visualized with UV excitation. The center two and right two panels show atherosclerotic aortas that were sectioned at the aortic root level and examined by confocal microscopy.

The test system of another series is MDA-MB-231 xenografts. The series is described as follows: In vivo homing of intravenous peptide, MDA-MB-231 xenografts. Set-up: species or system mice. The note with it: i.v.
Series [2] concerns the target T2, p32 (Homo sapiens, UniProt Q07021).
T2 construct: made in house; host or cells: E. coli Rosetta-gami-2 (Novagen)
T2 sequence (Q07021 74-282): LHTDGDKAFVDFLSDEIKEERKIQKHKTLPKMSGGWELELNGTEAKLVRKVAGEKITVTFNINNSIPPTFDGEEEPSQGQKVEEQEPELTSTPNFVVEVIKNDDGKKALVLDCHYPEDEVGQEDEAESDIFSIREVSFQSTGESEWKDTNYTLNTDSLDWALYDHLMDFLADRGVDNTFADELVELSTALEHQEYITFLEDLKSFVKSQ
Description: Fluorescence polarization assay with synthetic peptides on p32. It counts as binding. The note with it: for binding to p32 in fluorescence polarization assay (in words): synthetic peptides. The text has this: (§5) FIGS. 4A and 4B are plots showing a comparison of the binding of LyP-1 (SEQ ID NO: 7; diamonds) and TT1 (SEQ ID NO: 3; squares) to p32 in a fluorescence polarization assay. […] NRP-1 was used as a control protein.
FIG. 5 is a plot showing that P32-TT1 (CKRGARSTC; SEQ ID NO: 3) and LyP-1 (SEQ ID NO: 7) peptides competed for binding to the P32 protein. […] Squares: p32-TT1; Diamonds: LyP-1; X: RPARPAR peptide (SEQ ID NO: 14).
(§6) An exemplary RGXRS (SEQ ID NO: 4) pentapeptide motif-containing peptide with the sequence CKRGARSTC (SEQ ID NO: 3) was designated as the […] and used it for further studies. Mutating any amino acid in the consensus motif of TT1 abolished the phage binding to p32. This new peptide conferred about 15-fold stronger phage binding to immobilized p32 protein than did the canonical LyP-1 peptide.
(In fluorescence polarisation assays a small probe gives low polarisation when free and higher when bound to something large.)

The next series deals with NRP-1 (Homo sapiens, UniProt O14786). Description: Fluorescence polarization assay on NRP-1 (control protein). The note with it: NRP-1 as control protein. It is filed as binding.
Sequence of NRP-1 (O14786 22-923): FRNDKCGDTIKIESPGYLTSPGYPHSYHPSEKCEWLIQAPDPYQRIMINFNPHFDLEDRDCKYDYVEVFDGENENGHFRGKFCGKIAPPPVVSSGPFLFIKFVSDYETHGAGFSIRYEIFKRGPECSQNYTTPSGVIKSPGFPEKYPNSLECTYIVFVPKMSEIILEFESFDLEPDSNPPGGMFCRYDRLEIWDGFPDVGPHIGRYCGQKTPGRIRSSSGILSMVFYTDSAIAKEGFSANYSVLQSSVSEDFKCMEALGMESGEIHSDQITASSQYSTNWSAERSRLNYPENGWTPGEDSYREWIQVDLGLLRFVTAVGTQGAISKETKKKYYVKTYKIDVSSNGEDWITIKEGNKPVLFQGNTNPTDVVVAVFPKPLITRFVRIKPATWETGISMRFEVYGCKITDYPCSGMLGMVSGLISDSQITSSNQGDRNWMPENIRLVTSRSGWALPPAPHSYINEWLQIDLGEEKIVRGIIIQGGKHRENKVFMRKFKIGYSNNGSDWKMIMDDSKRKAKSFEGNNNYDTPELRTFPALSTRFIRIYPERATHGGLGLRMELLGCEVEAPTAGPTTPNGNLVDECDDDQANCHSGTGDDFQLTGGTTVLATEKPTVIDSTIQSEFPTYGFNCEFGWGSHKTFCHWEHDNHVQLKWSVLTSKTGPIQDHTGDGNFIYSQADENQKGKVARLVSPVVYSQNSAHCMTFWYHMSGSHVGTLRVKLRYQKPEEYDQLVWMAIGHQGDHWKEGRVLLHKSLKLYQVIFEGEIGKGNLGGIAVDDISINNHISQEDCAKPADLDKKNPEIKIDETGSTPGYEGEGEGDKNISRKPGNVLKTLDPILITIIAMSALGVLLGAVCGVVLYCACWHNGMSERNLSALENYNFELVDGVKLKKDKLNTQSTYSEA
Excerpt: as §5

The subject of series [3] is MCF10 breast cancer cells. Description: In vitro binding and internalization of FAM-labeled peptide in MCF10 cells. It is filed as cell-based. The note with it: 100 μM FAM-labeled peptide, 1 hour at 37° C. The method, then: as §1, §2
Series [4] deals with T2, p32. The series is described as follows: Binding of peptide-displaying T7 phage to p32-coated magnetic beads. The note with it: phage-displayed peptide; relative to LyP-1. The method, then:
FIG. 10 is a bar graph showing that the p32 binding of the RGXR(S/T) motif (SEQ ID NOs: 4 and 5) in the exemplary TT1 peptide (SEQ ID NO: 3) was not dependent on the cyclic structure and compatible with flanking sequences. Phage clones displaying the indicated peptides were incubated in p32-coated magnetic microbeads. After washing to remove non-bound phage, specifically bound phage were quantified.
Milligram quantities of recombinant His-tagged p32 protein were expressed in E. coli and coated onto Ni-NTA magnetic beads, and biopanning was performed using two T7 bacteriophage peptide libraries (cyclic Cx7C and linear X7 library).
as §4, §6

The test system of series [5] is orthotopic 4T1 breast tumors. Description: In vivo homing of intravenous FAM-labeled peptide, 4T1 tumors. Set-up: species or system mice. The note with it: 4T1 syngeneic tumors, 200 μg FAM-labeled peptide i.v., 2 hours. The protocol: as §3
Series [6] in a line: Aggregation of peptide-coated nanoparticles. It counts as physicochemical. The note with it: peptide on nanoparticles. The text has this:
The linear TT1 Peptide was selected for further study as a D[KLAKLAK]2 (SEQ ID NO: 42) conjugate on NWs. The CGKRK (SEQ ID NO: 6) and LyP-1 Peptides were included for comparison.

“CKRGARSTC (disulfide 1-9 (inferred)) [TT1 Peptide]”: the “cell surface binding and internalization” value is “rapidly bound to the surface of 4T1 and MCF10 breast cancer cells and was internalized over time” with 4T1 breast cancer cells; “rapidly bound to the surface of 4T1 and MCF10 breast cancer cells and was internalized over time” in [3]. Besides, the tumor homing result in [1] was “homed to breast tumors”; in series [1] (listed as TT1) it was “robust signal”; in the series on MDA-MB-231 xenografts, “homed to breast tumors”; in series [5], “homed to breast tumors”; in series [5] (listed as TT1) it was “robust signal”. For the same sequence, the “binding specificity after exposure to trypsin” value with NRP-1 b1b2 domain is recorded as “affinity switching from p32 to NRP-1 b1b2”. Besides, the “homing to and penetration into plaque tissue” value was “homed to and penetrated atherosclerotic lesions” in the series with atherosclerotic plaques; “homed to and penetrated into plaque tissue as well as or better than LyP-1” in the series with atherosclerotic plaques (listed as TT1). Besides, in the series on atherosclerotic plaques (ApoE null mice on high-fat diet), the “plaque homing compared with LyP-1 peptide” value is on record as “more robust than seen with the LyP-1 peptide”. Also, the “inhibition of binding of labeled TT1 to P32 by unlabeled peptide” value in the series with p32 [2] (competition, fluorescence polarization) is “could be inhibited”. Moreover, the “binding site on p32” value in the series with p32 [2] (fluorescence polarization) was “shared the binding site on p32 with the LyP-1 peptide”. Further, the “affinity for p32 (in words)” value in the series with p32 [2] (method not stated at the place) is listed as “high affinity for p32”. The results for the “binding to p32 in fluorescence polarization assay (in words)” value in the series with p32 [2] and with p32 [2] (listed as TT1) were “specific” and “bound to p32 with a higher affinity than LyP-1”, respectively. Further, in the series with NRP-1, the “binding to NRP-1 in fluorescence polarization assay (in words)” value is given as “only background binding”. Further, in the series with p32 [4], the “phage binding to immobilized p32 protein, fold stronger than the canonical LyP-1 peptide” value is given as “about 15 fold”. Moreover, the “aggregation of the peptide-coated nanoparticles” value in series [6] was “tended to cause aggregation of the peptide-coated nanoparticles”.
